Experimental data taken from ChEMBL document CHEMBL4177573 (Bioorg Med Chem, 2017).

Experiments:
[1] = target: T1, Neuropeptide Y receptor type 2 (Homo sapiens, UniProt P49146); experiment: Agonist activity at human neuropeptide Y2 receptor expressed in CHO cell membranes assessed as stimulation of [35S]GTPgammaS binding incubated for 120 mins by liquid scintillation counting method; type: functional
T1 sequence (P49146 whole entry): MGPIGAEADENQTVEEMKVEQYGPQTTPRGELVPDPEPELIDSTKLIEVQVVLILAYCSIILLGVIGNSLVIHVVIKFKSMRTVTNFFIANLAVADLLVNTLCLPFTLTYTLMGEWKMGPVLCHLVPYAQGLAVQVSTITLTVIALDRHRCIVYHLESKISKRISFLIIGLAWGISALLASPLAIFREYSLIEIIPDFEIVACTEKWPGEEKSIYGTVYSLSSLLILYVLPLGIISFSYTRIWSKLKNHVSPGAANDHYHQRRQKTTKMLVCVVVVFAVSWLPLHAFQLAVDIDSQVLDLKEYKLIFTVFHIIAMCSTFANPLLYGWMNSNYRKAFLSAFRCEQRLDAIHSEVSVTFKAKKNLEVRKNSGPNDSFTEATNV

[2] = target: T1, Neuropeptide Y receptor type 2; experiment: Displacement of [125I]-PYY from human neuropeptide Y2 receptor expressed in CHO cell membranes incubated for 60 mins by TopCount based method
[3] = tested on: Mus musculus; experiment: Anorectic activity in C57BL/6J mouse assessed as inhibition of food intake at 0.03 mg/kg/day, sc for 3 days dosed as continuous administration by infusion using osmotic pump; type: functional; details: 72 h
[4] = tested on: Mus musculus; experiment: Anorectic activity in C57BL/6J mouse assessed as inhibition of food intake at 0.3 mg/kg/day, sc dosed as […] and measured after 24 hrs; type: functional
[5] = tested on: Mus musculus; experiment: Anorectic activity in C57BL/6J mouse assessed as inhibition of food intake at 0.3 mg/kg/day, sc dosed as […] and measured after 12 hrs; type: functional

| SMILES | EC50 [1] [nM] | IC50 [2] [nM] | inhibition in vivo at 0.03 mg/kg/day [3] [%] | inhibition in vivo at 0.3 mg/kg/day [4] [%] | inhibition in vivo at 0.3 mg/kg/day [5] [%] |
| --- | --- | --- | --- | --- | --- |
| CC[C@](C)(NC(=O)[C@H](CC(C)C)NC(=O)[C@H](CC(N)=O)NC(=O)[C@H](CC1CCCCC1)NC(=O)[C@H](CC1CCCCC1)NC(=O)[C@H](Cc1cnc[nH]1)NC(=O)[C@H](CCCNC(=N)N)NC(=O)[C@H]1CCCN1C(=O)[C@H](CO)NC(C)=O)C(=O)N[C@H](C(=O)N[C@@H](CCCNC(=N)N)C(=O)N[C@@H](CCC(N)=O)C(=O)N[C@@H](CCCNC(=N)N)C(=O)N[C@@H](CC1CCCCC1)C(N)=O)[C@@H](C)O | 0.41 | 3.7 |  |  |  |
| CC[C@](C)(NC(=O)[C@H]1CCCN1C(=O)[C@H](CO)NC(C)=O)C(=O)N[C@@H](Cc1ccncc1)C(=O)N[C@@H](CC1CCCCC1)C(=O)N[C@@H](CC(C)(C)C)C(=O)N[C@@H](CC(N)=O)C(=O)N[C@@H](CCCCN)C(=O)NC(C)(C)C(=O)N[C@H](C(=O)N[C@@H](CCCNC(=N)N)C(=O)N[C@@H](CCC(N)=O)C(=O)N[C@@H](CCCNC(=N)N)C(=O)N[C@@H](CC1CCCCC1)C(N)=O)[C@@H](C)O | 0.2 | 0.4 | 52 | 1 | 12 |
| CC[C@@](C)(NC(=O)[C@H](CC1CCCCC1)NC(=O)[C@H](Cc1cnc[nH]1)NC(=O)[C@H](CCCNC(=N)N)NC(=O)[C@H]1CCCN1C(=O)[C@H](CO)NC(C)=O)C(=O)N[C@@H](CC(N)=O)C(=O)N[C@@H](CC(C)C)C(=O)NC(C)(C)C(=O)N[C@H](C(=O)N[C@@H](CCCNC(=N)N)C(=O)N[C@@H](CCC(N)=O)C(=O)N[C@@H](CCCNC(=N)N)C(=O)N[C@@H](CC1CCCCC1)C(N)=O)[C@@H](C)O | 0.5 | 3.3 |  |  |  |
| CC(C)C[C@H](NC(=O)[C@H](CC(N)=O)NC(=O)[C@H](CC1CCCCC1)NC(=O)[C@H](CC1CCCCC1)NC(=O)[C@H](Cc1cnc[nH]1)NC(=O)[C@H](CCCNC(=N)N)NC(=O)[C@H]1CCCN1C(=O)[C@H](CO)NC(=O)CO)C(=O)NC(C)(C)C(=O)N[C@H](C(=O)N[C@@H](CCCNC(=N)N)C(=O)N[C@@H](CCC(N)=O)C(=O)N[C@@H](CCCNC(=N)N)C(=O)N[C@@H](CC1CCCCC1)C(N)=O)[C@@H](C)O | 0.59 | 1.2 |  |  |  |
| CC[C@](C)(NC(=O)[C@H]1C[C@H](O)CN1C(=O)[C@H](CO)NC(C)=O)C(=O)N[C@@H](Cc1ccncc1)C(=O)N[C@@H](CC1CCCCC1)C(=O)NC(C)(C)C(=O)N[C@@H](CC(N)=O)C(=O)N[C@@H](CCCCN)C(=O)NC(C)(C)C(=O)N[C@H](C(=O)N[C@@H](CCCNC(=N)N)C(=O)N[C@@H](CCC(N)=O)C(=O)N[C@@H](CCCNC(=N)N)C(=O)N[C@@H](CC1CCCCC1)C(N)=O)[C@@H](C)O | 0.21 | 0.78 | 45 |  |  |
| CC[C@](C)(NC(=O)[C@H](CO)NC(C)=O)C(=O)N[C@@H](CCCNC(=N)N)C(=O)N[C@@H](Cc1cnc[nH]1)C(=O)N[C@@H](CC1CCCCC1)C(=O)N[C@@H](CC1CCCCC1)C(=O)N[C@@H](CC(N)=O)C(=O)N[C@@H](CC(C)C)C(=O)NC(C)(C)C(=O)N[C@H](C(=O)N[C@@H](CCCNC(=N)N)C(=O)N[C@@H](CCC(N)=O)C(=O)N[C@@H](CCCNC(=N)N)C(=O)N[C@@H](CC1CCCCC1)C(N)=O)[C@@H](C)O | 0.35 | 1.8 |  |  |  |
| CC[C@@](C)(NC(=O)[C@H](CO)NC(C)=O)C(=O)N[C@@H](CCCNC(=N)N)C(=O)N[C@@H](Cc1cnc[nH]1)C(=O)N[C@@H](CC1CCCCC1)C(=O)N[C@@H](CC1CCCCC1)C(=O)N[C@@H](CC(N)=O)C(=O)N[C@@H](CC(C)C)C(=O)NC(C)(C)C(=O)N[C@H](C(=O)N[C@@H](CCCNC(=N)N)C(=O)N[C@@H](CCC(N)=O)C(=O)N[C@@H](CCCNC(=N)N)C(=O)N[C@@H](CC1CCCCC1)C(N)=O)[C@@H](C)O | 0.28 | 2.4 |  |  |  |

Now those with a lower EC50 [1], led by results:

| EC50 [1] [nM] | IC50 [2] [nM] | SMILES | inhibition in vivo at 0.03 mg/kg/day [3] [%] | inhibition in vivo at 0.3 mg/kg/day [4] [%] | inhibition in vivo at 0.3 mg/kg/day [5] [%] |
| --- | --- | --- | --- | --- | --- |
| 0.18 | 0.51 | CC(C)C[C@H](NC(=O)[C@H](CC(N)=O)NC(=O)[C@H](CC1CCCCC1)NC(=O)[C@H](CC1CCCCC1)NC(=O)[C@H](Cc1cnc[nH]1)NC(=O)[C@H](CCCNC(=N)N)NC(=O)[C@H]1CCCN1C(=O)[C@H](CO)NC(=O)c1c[nH]cn1)C(=O)NC(C)(C)C(=O)N[C@H](C(=O)N[C@@H](CCCNC(=N)N)C(=O)N[C@@H](CCC(N)=O)C(=O)N[C@@H](CCCNC(=N)N)C(=O)N[C@@H](CC1CCCCC1)C(N)=O)[C@@H](C)O |  |  |  |
| 0.18 | 0.45 | CC[C@](C)(NC(=O)[C@H](CC1CCCCC1)NC(=O)[C@H](Cc1cnc[nH]1)NC(=O)[C@H](CCCNC(=N)N)NC(=O)[C@H]1CCCN1C(=O)[C@H](CO)NC(C)=O)C(=O)N[C@@H](CC(N)=O)C(=O)N[C@@H](CC(C)C)C(=O)NC(C)(C)C(=O)N[C@H](C(=O)N[C@@H](CCCNC(=N)N)C(=O)N[C@@H](CCC(N)=O)C(=O)N[C@@H](CCCNC(=N)N)C(=O)N[C@@H](CC1CCCCC1)C(N)=O)[C@@H](C)O |  |  |  |
| 0.17 | 0.67 | CC[C@@](C)(NC(=O)[C@H](CC(C)C)NC(=O)[C@H](CC(N)=O)NC(=O)[C@H](CC1CCCCC1)NC(=O)[C@H](CC1CCCCC1)NC(=O)[C@H](Cc1cnc[nH]1)NC(=O)[C@H](CCCNC(=N)N)NC(=O)[C@H]1CCCN1C(=O)[C@H](CO)NC(C)=O)C(=O)N[C@H](C(=O)N[C@@H](CCCNC(=N)N)C(=O)N[C@@H](CCC(N)=O)C(=O)N[C@@H](CCCNC(=N)N)C(=O)N[C@@H](CC1CCCCC1)C(N)=O)[C@@H](C)O |  |  |  |
| 0.17 | 0.91 | CC[C@](C)(NC(=O)[C@H]1C[C@H](O)CN1C(=O)[C@H](CO)NC(=O)c1c[nH]cn1)C(=O)N[C@@H](Cc1ccncc1)C(=O)N[C@@H](CC1CCCCC1)C(=O)NC(C)(C)C(=O)N[C@@H](CC(N)=O)C(=O)N[C@@H](CCCCN)C(=O)NC(C)(C)C(=O)N[C@H](C(=O)N[C@@H](CCCNC(=N)N)C(=O)N[C@@H](CCC(N)=O)C(=O)N[C@@H](CCCNC(=N)N)C(=O)N[C@@H](CC1CCCCC1)C(N)=O)[C@@H](C)O |  |  |  |
| 0.16 | 0.57 | CC[C@](C)(NC(=O)[C@H](CC1CCCCC1)NC(=O)[C@H](Cc1ccncc1)NC(=O)[C@](C)(CC)NC(=O)[C@H]1CCCN1C(=O)[C@H](CO)NC(C)=O)C(=O)N[C@@H](CC(N)=O)C(=O)N[C@@H](CCCCN)C(=O)NC(C)(C)C(=O)N[C@H](C(=O)N[C@@H](CCCNC(=N)N)C(=O)N[C@@H](CCC(N)=O)C(=O)N[C@@H](CCCNC(=N)N)C(=O)N[C@@H](CC1CCCCC1)C(N)=O)[C@@H](C)O | 36 | 16 | 23 |
| 0.13 | 0.44 | CC[C@](C)(NC(=O)[C@H](CC1CCCCC1)NC(=O)[C@H](Cc1ccncc1)NC(=O)[C@](C)(CC)NC(=O)[C@H]1C[C@H](O)CN1C(=O)[C@H](CO)NC(=O)c1c[nH]cn1)C(=O)N[C@@H](CC(N)=O)C(=O)N[C@@H](CCCCN)C(=O)NC(C)(C)C(=O)N[C@H](C(=O)N[C@@H](CCCNC(=N)N)C(=O)N[C@@H](CCC(N)=O)C(=O)N[C@@H](CCCNC(=N)N)C(=O)N[C@@H](CC1CCCCC1)C(N)=O)[C@@H](C)O | 49 |  |  |
| 0.13 | 0.58 | CC[C@](C)(NC(=O)[C@H]1C[C@H](O)CN1C(=O)[C@H](CO)NC(C)=O)C(=O)N[C@@H](Cc1ccncc1)C(=O)N[C@@H](CC1CCCCC1)C(=O)N[C@@H](CC(C)(C)C)C(=O)N[C@@H](CC(N)=O)C(=O)N[C@@H](CCCCN)C(=O)NC(C)(C)C(=O)N[C@H](C(=O)N[C@@H](CCCNC(=N)N)C(=O)N[C@@H](CCC(N)=O)C(=O)N[C@@H](CCCNC(=N)N)C(=O)N[C@@H](CC1CCCCC1)C(N)=O)[C@@H](C)O | 27 | 8 | 4 |
